Laboratory results as given in publication PMC3418602 (2009).

How the values were obtained:
Test in all cases: TR-FRET peptide phosphorylation kinase assay
Format in all cases: biochemical
[1] = target: JAK1 (Homo sapiens, UniProt P23458)
[2] = target: JAK2 (Homo sapiens, UniProt O60674)
[3] = target: JAK3 (Homo sapiens, UniProt P52333)
JAK3, sequence (P52333 781-1124 limits assumed): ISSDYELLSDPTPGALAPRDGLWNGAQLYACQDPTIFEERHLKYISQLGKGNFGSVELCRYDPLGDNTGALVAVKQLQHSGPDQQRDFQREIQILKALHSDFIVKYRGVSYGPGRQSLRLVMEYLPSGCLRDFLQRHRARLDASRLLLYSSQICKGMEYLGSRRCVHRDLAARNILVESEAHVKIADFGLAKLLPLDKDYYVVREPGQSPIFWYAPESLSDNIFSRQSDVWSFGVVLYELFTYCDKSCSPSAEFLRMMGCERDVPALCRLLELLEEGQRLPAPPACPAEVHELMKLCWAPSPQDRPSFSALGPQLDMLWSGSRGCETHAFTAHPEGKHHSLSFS

JAK2, sequence (O60674 840-1132 limits assumed): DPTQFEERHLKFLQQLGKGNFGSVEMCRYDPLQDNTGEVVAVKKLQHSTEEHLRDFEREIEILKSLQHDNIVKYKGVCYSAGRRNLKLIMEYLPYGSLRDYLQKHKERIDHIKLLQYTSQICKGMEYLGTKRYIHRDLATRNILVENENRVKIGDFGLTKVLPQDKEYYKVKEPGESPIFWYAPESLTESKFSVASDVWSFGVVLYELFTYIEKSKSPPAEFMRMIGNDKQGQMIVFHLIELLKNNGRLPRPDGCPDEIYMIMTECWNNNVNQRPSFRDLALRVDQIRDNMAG
JAK1, sequence (P23458 850-1154 limits assumed): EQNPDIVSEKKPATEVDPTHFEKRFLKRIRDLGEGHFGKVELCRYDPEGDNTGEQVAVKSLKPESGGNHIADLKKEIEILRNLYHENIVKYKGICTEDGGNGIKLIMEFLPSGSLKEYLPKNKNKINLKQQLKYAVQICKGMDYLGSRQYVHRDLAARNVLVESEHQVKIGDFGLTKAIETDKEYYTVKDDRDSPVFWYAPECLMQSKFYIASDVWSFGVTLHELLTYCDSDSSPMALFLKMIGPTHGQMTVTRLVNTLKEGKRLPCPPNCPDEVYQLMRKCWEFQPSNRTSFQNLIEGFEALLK

N#C/C(=C\c1ccc(O)c(O)c1)C(=O)NCc1ccccc1 [AG490]
IC50 [1]: 10.2 µM | IC50 [2]: 11.2 µM | IC50 [3]: 15.4 µM
